# From patent US12162888B2, “Carboxamides as ubiquitin-specific protease inhibitors” (Valo Early Discovery, Inc., priority 2018, dated 2024)
# Biological target: T1, USP28 (His-tagged USP28-FL-mammalian) (Homo sapiens, UniProt Q96RU2)
# T1 construct: Expression of USP28 (1-1077)-TEV-6*His (pTT5 vector) was carried out in Expi293f cells; made in house; host or cells: Expi293F cells (pTT5 vector)
# T1 sequence (Q96RU2 1-1077): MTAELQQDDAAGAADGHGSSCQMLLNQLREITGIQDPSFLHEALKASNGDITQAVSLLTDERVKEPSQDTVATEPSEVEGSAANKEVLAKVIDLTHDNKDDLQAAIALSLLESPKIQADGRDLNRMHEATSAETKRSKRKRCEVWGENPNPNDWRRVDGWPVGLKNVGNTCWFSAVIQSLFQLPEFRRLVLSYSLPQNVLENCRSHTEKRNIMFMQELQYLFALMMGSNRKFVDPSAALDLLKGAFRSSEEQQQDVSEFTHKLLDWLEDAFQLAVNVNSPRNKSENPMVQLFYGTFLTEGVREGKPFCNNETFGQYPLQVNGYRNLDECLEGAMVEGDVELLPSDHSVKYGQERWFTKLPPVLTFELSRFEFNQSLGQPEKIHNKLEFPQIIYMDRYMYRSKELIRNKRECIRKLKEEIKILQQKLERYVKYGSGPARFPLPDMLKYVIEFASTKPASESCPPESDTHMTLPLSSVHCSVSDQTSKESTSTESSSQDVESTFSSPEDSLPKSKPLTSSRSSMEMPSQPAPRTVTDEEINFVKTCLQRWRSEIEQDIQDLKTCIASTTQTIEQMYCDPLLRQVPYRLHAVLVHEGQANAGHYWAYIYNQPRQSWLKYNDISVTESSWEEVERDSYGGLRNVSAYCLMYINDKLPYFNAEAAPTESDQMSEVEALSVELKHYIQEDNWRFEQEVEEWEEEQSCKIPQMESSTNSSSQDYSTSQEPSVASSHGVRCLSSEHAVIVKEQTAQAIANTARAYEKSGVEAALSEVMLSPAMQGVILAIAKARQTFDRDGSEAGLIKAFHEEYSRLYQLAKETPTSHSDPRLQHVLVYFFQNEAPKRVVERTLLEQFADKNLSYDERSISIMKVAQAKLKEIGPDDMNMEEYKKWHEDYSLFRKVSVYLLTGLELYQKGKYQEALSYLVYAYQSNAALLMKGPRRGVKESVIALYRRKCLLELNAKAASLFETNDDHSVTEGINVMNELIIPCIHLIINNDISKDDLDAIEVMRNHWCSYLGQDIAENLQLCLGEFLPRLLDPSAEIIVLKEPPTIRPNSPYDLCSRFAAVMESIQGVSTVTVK
# Experiment: Ubiquitin-Rhodamine 110 Assay for USP28 Activity, Example A-1(a)
# Type: biochemical
# Settings: Ubiquitin-Rhodamine 110 assay, read-out: USP28 A-1(a) IC50 range
# Method: Example A-1(a): Biochemical Assay: Ubiquitin-Rhodamine 110 Assay for USP28 Activity
# The assay was performed in a final volume of 9 μL in assay buffer containing 20 mM Tris-HCl (pH 8.0, (1M Tris-HCl, pH 8.0 solution; Corning 46-031-CM)), 3 mM BME (2-Mercaptoethanol; Sigma 63689-25ML-F), 0.03% BGG (0.22 μM filtered, Sigma, G7516-25G), and 0.01% Triton X-100 (Sigma, T9284-10L). Nanoliter quantities of 10-point, 3-fold serial dilution in DMSO was pre-dispensed into 1536 assay plates (Corning, #3724BC) for a final test concentration of 25 μM to 1.3 nM, top to lowest dose, respectively. Enzyme USP28, construct His-tagged USP28-FL-mammalian, (protein expression and purification procedure described below). Concentration and incubation times were optimized for the maximal signal-to-background while maintaining initial velocity conditions at a fixed substrate concentration. The final concentration of the enzyme in the assay was […]. Final substrate (Ub-Rh110; Ubiquitin-Rhodamine 110, UbiQ-126) concentration was 25 nM with [Ub-Rh110]<<Km. 3 μL of 2× enzyme was added to assay plates (pre-stamped with compound) preincubated with […] for 30 minutes and then 3 μL of 2× Ub-Rh110 was added to assay plates. Plates were incubated for 45 minutes at room temperature before addition of 3 μL of stop solution (final concentration of 10 mM citric acid (Sigma, 251275-500G)). Fluorescence was read on the Envision (Excitation at 485 nm and Emission at 535 nm; Perkin Elmer) or on the PheraSTAR (Excitation at 485 nm and Emission at 535 nm; BMG Labtech).
# Procedure for the Protein expression and purification for construct His-tagged USP28-FL-mammalian
# Expression of USP28 (1-1077)-TEV-6*His (pTT5 vector) was carried out in Expi293f cells (sequence derived from uniprot ID: Q96RU2-1). Cells were re-suspended in lysis buffer B 50 mM Bicine, pH 8.0, 20 mM NaCl, 5% glycerol, 0.1% CHAPS, 5 mM β-ME, 1 mM PMSF, 1 ug/ml Leupeptin, 1 ug/ml Pepstatin) and lysed by sonication. Insoluble material was removed by centrifugation and the supernatant was loaded onto a Ni-NTA column (GE Healthcare) equilibrated with Ni Buffer A (50 mM Bicine, pH 8.0, 20 mM NaCl, 5% glycerol, 0.1% CHAPS, 5 mM R-ME.) and washed with Ni Buffer A+20 mM imidazole until A280 reached baseline. The protein was eluted with Ni Buffer B (50 mM Bicine, pH 8.0, 20 mM NaCl, 5% glycerol, 0.1% CHAPS, 5 mM β-ME, 300 mM imidazole.). The protein was further purified using a Superdex™ 200 10/300 GL column (GE Healthcare) equilibrated with 50 mM Bicine, pH 8.0, 20 mM NaCl, 5% glycerol, 0.1% CHAPS, 5 mM β-ME. The protein was concentrated to 2.5 mg ml-1, flash-frozen in liquid N2 and stored at −80° C.
# For assay formats Example A-1(a), A-1(b), and A-2, data were reported as percent inhibition compared with control wells based on the following equation: % inh=1−((FLU−AveLow)/(AveHigh−AveLow)) where FLU=measured Fluorescence, AveLow=average Fluorescence of no enzyme control (n=16), and AveHighh=average Fluorescence of DMSO control (n=16). IC50 values were determined by curve fitting of the standard 4 parameter logistic fitting algorithm included in the Activity Base software package: IDBS XE Designer Model 205. Data is fitted using the Levenburg Marquardt algorithm.
row,Compound,IC50 [µM]
1,"CO[C@@H]1CN(c2ccc3c(c2F)OC[C@H](NC(=O)c2sc4nc(C)ccc4c2N)C3)C[C@H]1N [Example 91, 3-amino-N-[(3R)-7-[(3R,4R)-3-amino-4-methoxypyrrolidin-1-yl]-8-fluoro-3,4-dihydro-2H-1-benzopyran-3-yl]-6-methylthieno[2,3-b]pyridine-2-carboxamide]",0.2 to 2

# Same assay, conditions: Ubiquitin-Rhodamine 110 biochemical assay, read-out: USP28 A-1(a) IC50 range
row,Compound,IC50 [µM]
1,"CO[C@H]1CCCN(c2ccc3c(n2)CC[C@H](NC(=O)c2sc4nc(C)ccc4c2N)C3)C[C@H]1N [Example 501, 3-amino-N-[(6S)-2-[(3R,4S)-3-amino-4-methoxyazepan-1-yl]-5,6,7,8-tetrahydroquinolin-6-yl]-6-methylthieno[2,3-b]pyridine-2-carboxamide]",0.2 to 2
2,"Cc1ccc2c(N)c(C(=O)N[C@H]3CCc4nc(N5C[C@@H](N)[C@]6(C5)OCC[C@H]6C)ccc4C3)sc2n1 [Example 512, 3-amino-N-[(6S)-2-[(4R,5S,9R)-9-amino-4-methyl-1-oxa-7-azaspiro[4.4]nonan-7-yl]-5,6,7,8-tetrahydroquinolin-6-yl]-6-methylthieno[2,3-b]pyridine-2-carboxamide]",0.05 to 0.2
3,"COC[C@@H]1CN(c2ccc3c(n2)CC[C@H](NC(=O)c2sc4nc(C)c(F)cc4c2N)C3)C[C@@H]1N [Example 513, 3-amino-N-[(6S)-2-[(3R,4R)-3-amino-4-(methoxymethyl)pyrrolidin-1-yl]-5,6,7,8-tetrahydroquinolin-6-yl]-5-fluoro-6-methylthieno[2,3-b]pyridine-2-carboxamide]",0.05 to 0.2
4,"CN[C@H]1CN(c2ccc3c(n2)CC[C@H](NC(=O)c2sc4nc(C)ccc4c2N)C3)C[C@H]1COC [Example 488, 3-amino-N-[(6S)-2-[(3R,4R)-3-(methoxymethyl)-4-(methylamino)pyrrolidin-1-yl]-5,6,7,8-tetrahydroquinolin-6-yl]-6-methylthieno[2,3-b]pyridine-2-carboxamide]",0.05 to 0.2
5,"CN[C@H]1CN(c2ccc3c(n2)CC[C@H](NC(=O)c2sc4nc(C)c(F)cc4c2N)C3)C[C@@H]1COC [Example 515, 3-amino-5-fluoro-N-[(6S)-2-[(3S,4R)-3-(methoxymethyl)-4-(methylamino)pyrrolidin-1-yl]-5,6,7,8-tetrahydroquinolin-6-yl]-6-methylthieno[2,3-b]pyridine-2-carboxamide]",0.05 to 0.2
6,"Cc1ccc2c(N)c(C(=O)N[C@H]3CCc4nc(N5C[C@H](N)[C@@]6(C5)OCC[C@H]6C)ccc4C3)sc2n1 [Example 510, 3-amino-N-[(6S)-2-[(4R,5R,9S)-9-amino-4-methyl-1-oxa-7-azaspiro[4.4]nonan-7-yl]-5,6,7,8-tetrahydroquinolin-6-yl]-6-methylthieno[2,3-b]pyridine-2-carboxamide]",0.05 to 0.2
7,"Cc1ccc2c(N)c(C(=O)N[C@H]3CCc4nc(N5C[C@@H](N)CC(F)(F)C5)ccc4C3)sc2n1 [Example 518, 3-amino-N-[(6S)-2-[(5S)-5-amino-3,3-difluoropiperidin-1-yl]-5,6,7,8-tetrahydroquinolin-6-yl]-6-methylthieno[2,3-b]pyridine-2-carboxamide]",0.001 to 0.05
8,"Cc1ccc2c(N)c(C(=O)N[C@H]3CCc4nc(N5C[C@H](N)CC(F)(F)C5)ccc4C3)sc2n1 [Example 519, 3-amino-N-[(6S)-2-[(5R)-5-amino-3,3-difluoropiperidin-1-yl]-5,6,7,8-tetrahydroquinolin-6-yl]-6-methylthieno[2,3-b]pyridine-2-carboxamide]",0.001 to 0.05

# Same assay, conditions: biochemical IC50 range, Ubiquitin-Rhodamine 110 assay, read-out: USP28 A-1(a)
row,Compound,IC50 [µM]
1,"Cc1ccc2c(N)c(C(=O)N[C@H]3COc4cc(N5C[C@H](N)[C@@]6(C5)OCC[C@H]6C)ccc4C3)sc2n1 [Example 612-2, 3-amino-N-[(3R)-7-[(4R,5R,9S)-9-amino-4-methyl-1-oxa-7-azaspiro[4.4]nonan-7-yl]-3,4-dihydro-2H-1-benzopyran-3-yl]-6-methylthieno[2,3-b]pyridine-2-carboxamide]",0.001 to 0.05
2,"CN[C@@H]1CN(c2cc(F)c3c(c2)OC[C@H](NC(=O)c2sc4nc(C)ncc4c2N)C3)C[C@H]1COC [Example 695, 5-amino-N-[(3R)-5-fluoro-7-[(3R,4S)-3-(methoxymethyl)-4-(methylamino)pyrrolidin-1-yl]-3,4-dihydro-2H-1-benzopyran-3-yl]-2-methylthieno[2,3-d]pyrimidine-6-carboxamide]",0.2 to 2
3,"Cc1ccc2c(N)c(C(=O)N[C@H]3COc4cc(OC[C@H]5CNCC5(F)F)ccc4C3)sc2n1 [Example 686, 3-amino-N-[(3R)-7-{[(3R)-4,4-difluoropyrrolidin-3-yl]methoxy}-3,4-dihydro-2H-1-benzopyran-3-yl]-6-methylthieno[2,3-b]pyridine-2-carboxamide]",0.001 to 0.05
4,"Cc1ccc2c(N)c(C(=O)N[C@H]3COc4nc(N5C[C@H](N)C6(C5)OCCO6)ccc4C3)sc2n1 [Example 543, 3-amino-N-[(3R)-7-[(9S)-9-amino-1,4-dioxa-7-azaspiro[4.4]nonan-7-yl]-2H,3H,4H-pyrano[2,3-b]pyridin-3-yl]-6-methylthieno[2,3-b]pyridine-2-carboxamide]",0.2 to 2
5,"Cc1ccc2c(N)c(C(=O)N[C@H]3COc4cc(N5C[C@H](COC(F)(F)F)[C@H](N)C5)ccc4C3)sc2n1 [Example 673, 3-amino-N-[(3R)-7-[(3S,4S)-3-amino-4-[(trifluoromethoxy)methyl]pyrrolidin-1-yl]-3,4-dihydro-2H-1-benzopyran-3-yl]-6-methylthieno[2,3-b]pyridine-2-carboxamide]",0.001 to 0.05
6,"CN[C@H]1CN(c2ccc3c(c2)OC[C@H](NC(=O)c2sc4nc(C)ccc4c2N)C3)C[C@H]1COC [Example 679, 3-amino-N-[(3R)-7-[(3R,4R)-3-(methoxymethyl)-4-(methylamino)pyrrolidin-1-yl]-3,4-dihydro-2H-1-benzopyran-3-yl]-6-methylthieno[2,3-b]pyridine-2-carboxamide]",0.001 to 0.05
